Results reported in US20080220031A1, “Dermocosmetic Preparations” (BASF Aktiengesellschaft, priority 2005, published 2008).

Assay: Oxidation test squalene test (Raman, azo initiator V65)
Settings: 2500 ppm test substance, azo initiator V65, 30 days at 40° C., squalene content by Raman spectrum
Protocol: 3 ml of a 2% strength solution of the azo initiator V65 (from Wako) are introduced together with 2500 ppm of test substance (based on the squalene solution) into 12×100 […] Fiolax test tubes and thoroughly mixed using a laboratory shaker. The samples are then stored open in a through-circulation drying oven for 30 days at 40° C. At intervals of 7 days, the squalene content of the samples is determined by means of the Raman spectrum and chemometric evaluation. The datapoints are documented in an XY graph and the efficiency of the test substance is determined from the slope of the decomposition curves in comparison with a reference sample without test substance. The slope of the reference sample divided by the slope of the test substance sample gives the factor Q_Raman.

| Molecule | Qraman (slope of reference sample divided by slope of test substance sample) |
| --- | --- |
| CN1C(C)(C)CC(N2CN3C(=O)N4CN(C5CC(C)(C)N(C)C(C)(C)C5)CN5C(=O)N(C2)C3C45)CC1(C)C | 2.2 |
| O=C1O[C@H]([C@@H](O)CO)C(O)=C1O [Ascorbic acid] | 1.2 |
| CN1C(C)(C)CC(N(C=O)CCCCCCN(C=O)C2CC(C)(C)N(C)C(C)(C)C2)CC1(C)C | 2.4 |
| CCCCN(c1nc(NCCCN(CCN(CCCNc2nc(N(CCCC)C3CC(C)(C)N(C)C(C)(C)C3)nc(N(CCCC)C3CC(C)(C)N(C)C(C)(C)C3)n2)c2nc(N(CCCC)C3CC(C)(C)N(C)C(C)(C)C3)nc(N(CCCC)C3CC(C)(C)N(C)C(C)(C)C3)n2)c2nc(N(CCCC)C3CC(C)(C)N(C)C(C)(C)C3)nc(N(CCCC)C3CC(C)(C)N(C)C(C)(C)C3)n2)nc(N(CCCC)C2CC(C)(C)N(C)C(C)(C)C2)n1)C1CC(C)(C)N(C)C(C)(C)C1 | 1.4 |
| CC1(C)CC(N2CN3C(=O)N4CN(C5CC(C)(C)NC(C)(C)C5)CN5C(=O)N(C2)C3C45)CC(C)(C)N1 | 1.3 |
| COC(=O)C(CO)ON1C(C)(C)CC(OC)CC1(C)C (stereo not drawn) | 1.8 |
| CC(ON1C(C)(C)CC(O)CC1(C)C)c1ccccc1 (stereo not drawn) | 1.3 |
| CCCCCCCCCCCCC1CC(=O)N(C2CC(C)(C)N(C)C(C)(C)C2)C1=O (stereo not drawn) | 6.2 |
| Tocopherol | 1.4 |
| CCCCCCCCON1C(C)(C)CC(OC(=O)CCCCCCCCC(=O)OC2CC(C)(C)N(OCCCCCCCC)C(C)(C)C2)CC1(C)C [Tinuvin 123] | 1.8 |
| CCCCCCCCCCCCC1CC(=O)N(C2CC(C)(C)NC(C)(C)C2)C1=O (stereo not drawn) [drawing 31] | 7.1 |

Assay: not given
Settings: footnotes 2-4: BASF Technical Information / H. Zweifel; cited from earlier work

| Molecule | pKa |
| --- | --- |
| CC1(C)CC(N2CN3C(=O)N4CN(C5CC(C)(C)NC(C)(C)C5)CN5C(=O)N(C2)C3C45)CC(C)(C)N1 | 9.8^2) |

Assay: Solubility of various HAS compounds in Miglyol 812
Assay type: physicochemical
Settings: introduced in portions into 10 g of Miglyol, stirred at room temperature
From the text: Experimental procedure: The respective MS compound was introduced gradually in small portions into 10 g of Miglyol and in each case stirred at room temperature until it had completely dissolved.

| Molecule | Solubility in Miglyol 812 |
| --- | --- |
| CCCCCCCCCCCCC1CC(=O)N(C2CC(C)(C)NC(C)(C)C2)C1=O (stereo not drawn) [2-Dodecyl-N-(2,2,6,6-tetramethyl-4-piperidinyl)succinimide] | min. 50% |
| CC1(C)CC(OC(=O)CCCCCCCCC(=O)OC2CC(C)(C)NC(C)(C)C2)CC(C)(C)N1 [Tinuvin ® 770] | 4.7% |
| CC1(C)CC(N(C=O)CCCCCCN(C=O)C2CC(C)(C)NC(C)(C)C2)CC(C)(C)N1 [Uvinul ® 4050H] | insoluble |
